# Results: US20020107283A1, “Carbamate compounds for use in preventing or treating neuropathic pain and cluster and migraine headache-associated pain” (priority 2000, published 2002)
# Legend:
# [1] = system: L5 and L6 spinal nerve ligated rats, mechanical allodynia; test: Antiallodynic activity, electronic Von Frey probes, L5 and L6 spinal nerve ligation; type: in vivo, Rj: Wistar (Han) rats
# Description: Pathogen-free, male Rj: Wistar (Han) rats (300-380 g) were purchased from Elevage Janvier, 53940 Le Genest-Saint-Isle, France. The animals were maintained on a 12-h light/dark cycle (lights on from 7:00-19:00) in a controlled ambient temperature of 21±1° C., and relative humidity maintained at 40-70%. The animals had free access to food (UAR 113) and tap water until tested.
# Rats were anesthetized (sodium pentobarbital 40 mg/kg i.p.). A ligature was tied tightly around the left L5 and L6 spinal nerves. The rats received an i.m. injection of 50 000 IU Penicillin (Diamant®) and were allowed to recover. This procedure results in mechanical allodynia in the left hind paw. Two weeks after the surgery, when the allodynic state was fully developed, rats were submitted consecutively to tactile stimulation of both the non-lesioned and the lesioned hindpaws.
# The animals were placed on an elevated grid floor in Plexiglass boxes (19×11.5×13 cm). The tip of an electronic Von Frey probe (Bioseb, Model 1610) was then applied with increasing pressure to the lesioned and non-lesioned hindpaws and the force required to induce paw-withdrawal was automatically recorded. Prior to receiving drug treatment all animals were submitted to tactile stimulation and assigned to treatment groups matched on the basis of their pain response. This procedure was carried out 3 times for each paw and the mean paw force was calculated to provide basic scores per animal. Data were expressed as percent change (means ±SEM) of effectiveness from the controls. Statistical analysis was done using non-paired and paired Student's t tests.
# As summarized in Table 2 below, an enantiomer of Formula (Ib) substantially free of other enantiomers was evaluated at the doses 10, 30 and 100 mg/kg (n=8), administered p.o. in a volume of 5 mL/kg. Morphine (128 mg/kg) was used as reference substance. Control animals received a p.o. administration of vehicle. The test was performed blind 30, 60 and 90 minutes after drug administration.
# [2] = system: Chung model of neuropathic pain (L5 spinal nerve ligated rats, mechanical allodynia); test: Antiallodynic activity in the Chung model, manually applied von Frey probes; type: in vivo, Sprague-Dawley rats
# Source text: The procedure used to test the antiallodynic activity of an enantiomer of Formula (I) substantially free of other enantiomers was the procedure for the measurement of allodynia found in the Chung Model (Kim S. H. and Chung J. M., An Experimental Model for Peripheral Neuropathy Produced by Segmental Spinal Nerve Ligation in the Rat, Pain, 1992, 50, 355-363).
# Pathogen-free, male albino Sprague-Dawley rats, 200 g, were purchased from Harlan Industries (Indianapolis, Ind.) and maintained on a 12-h light/dark cycle (lights on at 06:00 h) in a climate-controlled room with food and water available ad libitum up to the time of the testing and food withdrawn 18 hr prior to testing.
# The rats were anesthetized with isoflurane inhalant anesthesia. The left lumbar spinal nerve at the level of L5 was tightly ligated (4-0 silk suture) distal to the dorsal root ganglion and prior to entrance into the sciatic nerve, as described by Kim and Chung. The incisions were closed and the rats were allowed to recover under conditions described above. This procedure results in mechanical allodynia in the left hind paw. The sham operation, when performed, consisted of a similar surgical procedure lacking only the final ligation of the spinal nerve. Mechanical (tactile) allodynia was assessed by recording the pressure at which the affected paw (ipsilateral to the site of nerve injury) was withdrawn from graded stimuli (von Frey filaments ranging from 4.0 to 148.1 mN) applied by hand perpendicularly to the plantar surface of the paw (between the footpads) through wire-mesh observation cages. A paw withdrawal threshold (PWT) was determined by sequentially increasing and decreasing the stimulus strength and analyzing withdrawal data using a Dixon non-parametric test, as described by Chaplan et al (Chaplan S. R., Bach F. W., Pogrel J. W., Chung J. M. and Yaksh T. L., Quantitative Assessment of Tactile Allodynia in the Rat Paw, J Neurosci Meth, 1994, 53, 55-63). Normal rats, sham operated rats, and the contralateral paw of L5 ligated rats withstand at least 148.1 mN (equivalent to 15 g) of pressure without responding. Spinal nerve ligated rats respond to as little as 4.0 mN (equivalent to 0.41 g) of pressure on the affected paw. […] The PWT was used to calculate the % maximal possible effect (% MPE) according to the formula:
# % MPE=100×(PWT−CT)/(CO−CT).
# As summarized in Table 1 below, the enantiomer of Formula (Ib) substantially free of other enantiomers was screened for antiallodynic activity in the Chung model of neuropathic pain at a dose of 30 mg/kg, po, with responses being measured at 0.5, 1, 2 and 4 hr post dosing.
Compound,"% Change (paw-withdrawal force from controls) ([1]; 128 mg/Kg morphine, positive control)","% Change (paw-withdrawal force from controls) ([1]; 10 mg/kg p.o., ligatured paw, 60 minute measurement, n=8, p ns)","% Change (paw-withdrawal force from controls) ([1]; 30 mg/kg p.o., ligatured paw, 60 minute measurement, n=8, p <0.05)","% Change (paw-withdrawal force from controls) ([1]; 100 mg/kg p.o., ligatured paw, 60 minute measurement, n=8, p <0.05)","effect on the non-ligatured paw ([1]; 10, 30 and 100 mg/kg p.o., 60 minute measurement)","anti-allodynic effect at 90 min post-dosing ([1]; p.o., 90 min post-dosing)","% Maximum Possible Effect ([2]; 30 mg/kg, po, paw withdrawal threshold, activity seen at 30 min post-dosing, n=5)","time course of antiallodynic activity ([2]; 30 mg/kg, po, responses measured at 0.5, 1, 2 and 4 hr post dosing)","dose dependence of antiallodynic responses ([2]; about 5 mg/kg, p.o. to about 45 mg/kg, p.o., 30 min)",time of peak antiallodynic effect ([2]; after oral dosing),"maximum % MPE ([2]; highest dose tested (about 45 mg/kg, p.o.), 30 min after oral dosing, N=5)"
"CN1CC[C@]23c4c5ccc(O)c4O[C@H]2[C@@H](O)C=C[C@H]3[C@H]1C5 [morphine, Morphine, reference compound]",38%,–,–,–,–,–,–,–,–,–,–
NC(=O)OC[C@@H](O)c1ccccc1Cl [enantiomer of Formula (Ib)],–,65%,80%,72%,without affecting the non-ligatured paw,no longer present by 90 min post-dosing,51%,"exhibited antiallodynic activity at 30 min. post-dosing, and responses returned to baseline by one hour",dose-dependent,30 min,60%
